Reference: US6410558B1, “Fungicides for the control of take-all disease of plants” (Monsanto Technology LLC, priority 1991, dated 2002)

Tested on: Gaeumannomyces graminis var. tritici (Ggt)
Assay: In vitro Assay: mycelial growth of Ggt on minimal media agar plates containing test compound
Format: cell-based
Conditions: dark, 19-20° C., 4 to 5 days, diameter of mycelial growth; for inhibition at 0.1 ppm / inhibition at 1 ppm / inhibition at 10 ppm: Gaeumannomyces graminis; for inhibition at 0.1 ppm: read-out: In vitro (ppm) 0.1, Percent Inhibition; for inhibition at 1 ppm: read-out: In vitro (ppm) 1, Percent Inhibition; for inhibition at 10 ppm: read-out: In vitro (ppm) 10, Percent Inhibition
Procedure: The test compounds (0.25 mL of an appropriate stock solution in acetone) are incorporated into 25 mL minimal media agar [(prepared by autoclaving a solution of 17.5 g Czapek Dox broth (Difco), 7.5 g purified agar or Bacto-agar (Difco), and 500 mL distilled/deionized water, and then adding 50 μL of 1 mg/mL thiamine hydrochloride and 50 μL of 1 mg/mL biotin in 5% ethanol] and plates are prepared.
Each plate is inoculated by placing in a triangular shape three 4-mm plugs of Gaeumannomyces graminis var. tritici (Ggt) grown on the minimal media agar described above. The plates are incubated in the dark at 19-20° C. for 4 to 5 days. The growth of the fungus is measured as the diameter of the mycelial growth. The result is expressed as Percent Inhibition, calculated as [1-[(mm growth on treated plate −4)/(mm growth on control plate −4)]]×100.

| Structure (SMILES) | inhibition at 0.1 ppm (0.1 ppm in minimal media agar) | inhibition at 1 ppm (1 ppm in minimal media agar) | inhibition at 10 ppm (10 ppm in minimal media agar) | In vitro (ppm) 0.1, Percent Inhibition (0.1 ppm in minimal media agar) | In vitro (ppm) 1, Percent Inhibition (1 ppm in minimal media agar) | In vitro (ppm) 10, Percent Inhibition (10 ppm in minimal media agar) |
| --- | --- | --- | --- | --- | --- | --- |
| CCNC(=O)c1c([Si](C)(C)C)ccc(I)c1Cl [Example 239, 2-Chloro-N-ethyl-3-iodo-6-(trimethylsilyl)benzamide] | 22% | 57% | 87% | – | – | – |
| CCNC(=O)c1c(Br)cccc1[Si](C)(C)C [Example 176, 2-Bromo-N-ethyl-6-(trimethylsilyl)benzamide] | 83% | 97% | 97% | – | – | – |
| CCCCCCC(C)N(CC)C(=O)c1c(Cl)cccc1[Si](C)(C)C (stereo not drawn) [Example 96, 2-Chloro-N-ethyl-N-(1-methylheptyl)-6-(trimethylsilyl)benzamide] | 7% | 15% | 48% | – | – | – |
| CCNC(=O)c1cccn1C[Si](C)(C)C [Example 253, N-Ethyl-1-[(trimethylsilyl)methyl]-1H-pyrrole-2-carboxamide] | < 0% | 14% | 62% | – | – | – |
| CCNC(=O)c1sc(I)cc1[Si](C)(C)C [Example 257, N-Ethyl-5-iodo-3-(trimethylsilyl)-2-thiophenecarboxamide] | 3% | 23% | 100% | – | – | – |
| CCNC(=S)c1c(Cl)cccc1[Si](C)(C)C [Example 76, 2-Chloro-N-ethyl-6-(trimethylsilyl)thiobenzamide] | < 0% | 45% | 79% | – | – | – |
| CCN(C(=O)c1c(Cl)cccc1[Si](C)(C)C)c1ccccc1 [Example 24, 2-Chloro-N-ethyl-N-phenyl-6-(trimethylsilyl)benzamide] | < 0% | < 0% | 100% | – | – | – |
| CC(C)c1ccccc1NC(=O)c1c(Cl)cccc1[Si](C)(C)C [Example 156, 2-Chloro-N-[2-(1-methylethyl)phenyl]-6-(trimethylsilyl)benzamide] | 9% | 33% | 72% | – | – | – |
| CCN(CC)C(=O)c1c([Si](C)(C)C)ccc(F)c1Cl [Example 88, N,N-Diethyl-2-chloro-3-fluoro-6-(trimethylsilyl)benzamide] | < 0% | < 0% | 73% | – | – | – |
| CCNC(=O)c1c(F)cccc1SC(C)(C)C [Example 90] | – | – | – | 6% | 34% | 89% |
| CN(C(=O)c1c(Cl)cccc1[Si](C)(C)C)C(C)(C)C [Example 23, 2-Chloro-N-(1,1-dimethylethyl)-N-methyl-6-(trimethylsilyl)benzamide] | < 0% | < 0% | 71% | – | – | – |
| CCN(CC)C(=O)c1c(C=O)ccc(F)c1[Si](C)(C)C [Example 41, N,N-Diethyl-3-fluoro-6-formyl-2-(trimethylsilyl)benzamide] | 24% | 21% | 52% | – | – | – |
| CCOP(=O)(OCC)N(CC)C(=O)c1c(Cl)cccc1[Si](C)(C)C [Example 278, [2-Chloro-6-(trimethylsilyl)benzoyl]ethylphosphoramidic acid, diethyl ester] | < 0% | 50% | 75% | – | – | – |
| CCNC(=O)c1c(F)cccc1CC(C)(C)C [Example 93, 2-(2,2-Dimethylpropyl)-N-ethyl-6-fluorobenzamide] | < 0% | < 0% | 26% | – | – | – |
| C[Si](C)(C)c1cccc(Cl)c1C(=O)NCc1ccncc1 [Example 145, 2-Chloro-N-(4-pyridinylmethyl)-6-(trimethylsilyl)benzamide] | < 0% | < 0% | 27% | – | – | – |
| CCNC(=O)c1cccc([N+](=O)[O-])c1[Si](C)(C)C [Example 246, N-Ethyl-3-nitro-2-(trimethylsilyl)benzamide] | < 0% | 2% | 61% | – | – | – |
| CCNC(=O)c1occc1[Si](C)(C)C [Example 252, N-Ethyl-3-(trimethylsilyl)-2-furancarboxamide] | 5% | 28% | 100% | – | – | – |
| CCNC(=O)c1sc2c(c1[Si](C)(C)C)CCCC2 [Example 274, N-Ethyl-3-(trimethylsilyl)-4,5,6,7-tetrahydrobenzo[B]thiophene-2-carboxamide] | < 0% | 10% | 67% | – | – | – |

| Structure (SMILES) | inhibition at 0.1 ppm (0.1 ppm in minimal media agar) | inhibition at 1 ppm (1 ppm in minimal media agar) | inhibition at 10 ppm (10 ppm in minimal media agar) | In vitro (ppm) 0.1, Percent Inhibition (0.1 ppm in minimal media agar) | In vitro (ppm) 1, Percent Inhibition (1 ppm in minimal media agar) | In vitro (ppm) 10, Percent Inhibition (10 ppm in minimal media agar) |
| --- | --- | --- | --- | --- | --- | --- |
| CCNC(=O)c1sccc1[Si](C)(C)C [Example 248, N-Ethyl-3-(trimethylsilyl)-2-thiophenecarboxamide] | 10% | 10% | 100% | – | – | – |
| CCNC(=O)c1c(Cl)cccc1-c1ccc2ccccc2c1 [Example 122, 2-Chloro-N-ethyl-6-(2-naphthalenyl)benzamide] | < 0% | < 0% | 67% | – | – | – |
| CCNC(=O)c1c(Cl)cccc1[Si](C)(C)C(C)(C)C [Example 185, 2-Chloro-6-[(1,1-dimethylethyl)dimethylsilyl]-N-ethylbenzamide] | 48% | 56% | 72% | – | – | – |
| CCNC(=O)c1sc(C)cc1[Si](C)(C)C [Example 256, N-Ethyl-5-methyl-3-(trimethylsilyl)-2-thiophenecarboxamide] | < 0% | < 0% | 100% | – | – | – |
| CCNC(=O)n1nccc1[Si](C)(C)C [Example 284, N-Ethyl-5-(trimethylsilyl)-1H-pyrazole-1-carboxamide] | 23% | 35% | 91% | – | – | – |
| C[Si](C)(C)c1ccc(F)c([Si](C)(C)C)c1C(=O)N1CCCC1 [Example 118, 1-[3-Fluoro-2,6-bis(trimethylsilyl)benzoyl]pyrrolidine] | < 0% | < 0% | 38% | – | – | – |
| CCNC(=O)c1c(Br)ccc(OC)c1[Si](C)(C)C [Example 236, 6-Bromo-N-ethyl-3-methoxy-2-(trimethylsilyl)benzamide] | < 0% | 68% | 86% | – | – | – |
| C[Si](C)(C)c1cccc(Cl)c1NC(=O)C(Cl)(Cl)Cl [Example 175, 2,2,2-Trichloro-N-[2-chloro-6-(trimethylsilyl)phenyl]acetamide] | 35% | 48% | 60% | – | – | – |
| CCNC(=O)c1cc(Br)sc1[Si](C)(C)C [Example 268, 5-Bromo-N-ethyl-2-(trimethylsilyl)-3-thiophenecarboxamide] | < 0% | < 0% | 100% | – | – | – |
| CCNC(=O)c1cnn(C)c1[Si](C)(C)C [Example 288, N-Ethyl-1-methyl-5-(trimethylsilyl)-1H-pyrazole-4-carboxamide] | < 0% | < 0% | 53% | – | – | – |
| CCNC(=O)c1c(Cl)cccc1N(C)C(C)(C)C [Example 190, 2-Chloro-6-[(1,1-dimethylethyl)methylamino]-N-ethylbenzamide] | 24% | 76% | 80% | – | – | – |
| C[Si](C)(C)c1cccc(Cl)c1C(=O)NCCCCl [Example 30, 2-Chloro-N-(3-chloropropyl)-6-(trimethylsilyl)benzamide] | < 0% | 60% | 80% | – | – | – |
| CCNC(=O)c1c(Cl)cccc1[Si](C)(C)c1ccccc1 [Example 184, 2-Chloro-6-(dimethylphenylsilyl)-N-ethylbenzamide] | < 0% | 11% | 83% | – | – | – |
| CCN(CC)C(=O)c1cc(C)ccc1[Si](C)(C)C [Example 63, N,N-Diethyl-5-methyl-2-(trimethylsilyl)benzamide] | < 0% | 40% | 69% | – | – | – |
| CC(C)N(C)C(=O)c1c(Cl)cccc1[Si](C)(C)C [Example 164, 2-Chloro-N-methyl-N-(1-methylethyl)-6-(trimethylsilyl)benzamide] | 3% | 3% | 70% | – | – | – |
| CCNC(=O)c1sc(C=O)cc1[Si](C)(C)C [Example 258, N-Ethyl-5-formyl-3-(trimethylsilyl)-2-thiophenecarboxamide] | 19% | 19% | 42% | – | – | – |
| CCNC(=O)c1c(Cl)cc(Cl)cc1[Si](C)(C)C [Example 234, 2,4-Dichloro-N-ethyl-6-(trimethylsilyl)benzamide] | < 0% | 32% | 81% | – | – | – |
| CCNC(=O)c1c([Si](C)(C)C)csc1Cl [Example 177, 2-Chloro-N-ethyl-4-(trimethylsilyl)-3-thiophenecarboxamide] | 11% | 19% | 100% | – | – | – |
